Test system: Liver ApoB mRNA
Assay: Liver ApoB mRNA knockdown by 1:57 SNALP containing cationic lipid and ApoB siRNA in mice (branched DNA QuantiGene assay)
Type: in vivo
Settings: Balb/c mice; for ApoB knockdown relative to PBS control (%): 1:57 SNALP containing the cationic lipid with ApoB siRNA, liver ApoB:GAPD mRNA, 48 h, n = 3; for ApoB silencing activity compared to a SNALP formulation containing the C2K benchmark cationic lipid: 1:57 SNALP with ApoB siRNA, administered at the same dose as C2K SNALP
Source text: In some embodiments, siRNA molecules were encapsulated into serum-stable nucleic acid-lipid particles (SNALP) composed of the following lipids: (1) the lipid conjugate PEG2000-C-DMA (3-N-[(-methoxypoly(ethylene glycol)2000)carbamoyl]-1,2-dimyristyloxypropylamine); (2) one or more cationic lipids or salts thereof (e.g., cationic lipids of Formula I of the invention and/or other cationic lipids described herein); (3) the phospholipid DPPC (1,2-dipalmitoyl-sn-glycero-3-phosphocholine) (Avanti Polar Lipids; Alabaster, Ala.); and (4) synthetic cholesterol (Sigma-Aldrich Corp.; St. Louis, Mo.) in the molar ratio 1.4:57.1:7.1:34.3, respectively. In other words, siRNA molecules were encapsulated into SNALP of the following “1:57” formulation: 1.4% PEG2000-C-DMA; 57.1% cationic lipid; 7.1% DPPC; and 34.3% cholesterol. It should be understood that the 1:57 formulation is a target formulation, and that the amount of lipid (both cationic and non-cationic) present and the amount of lipid conjugate present in the formulation may vary. Typically, in the 1:57 formulation, the amount of cationic lipid will be 57.1 mol %±5 mol %, and the amount of lipid conjugate will be 1.4 mol %±0.5 mol %, with the balance of the 1:57 formulation being made up of non-cationic lipid (e.g., phospholipid, cholesterol, or a mixture of the two).
SNALP formulations were administered by IV injection at 0.033 mg/kg or at 0.05 mg/kg into Balb/c mice (n=3 per group). Liver ApoB mRNA levels were evaluated at 48 hours after SNALP administration by a branched DNA assay (QuantiGene assay) to assess ApoB mRNA relative to the housekeeping gene GAPDH.

CC/C=C\C/C=C\C/C=C\CCCCCCCCC(CCCCCCCC/C=C\C/C=C\C/C=C\CC)OC(=O)CCCN(C)C [Compound 4, LenMC3]
ApoB knockdown relative to PBS control (%) (IV 0.033 mg/kg): −78% | ApoB silencing activity compared to a SNALP formulation containing the C2K benchmark cationic lipid: unexpectedly improved ApoB silencing activity

CCCCC/C=C\C/C=C\CCCCCCCCC(CCCCCCCC/C=C\C/C=C\CCCCC)OC(=O)N(C)CCCN(C)CC [Compound 30, (6Z,9Z,28Z,31Z)-heptatriaconta-6,9,28,31-tetraen-19-yl (3-(ethyl(methyl)amino)propyl)(methyl)carbamate]
ApoB knockdown relative to PBS control (%) (IV 0.05 mg/kg): −65%

CCCCC/C=C\C/C=C\CCCCCCCCC1(CCCCCCCC/C=C\C/C=C\CCCCC)OCC(CCN(C)C)O1 (centres unmarked) [Compound C2K, 2,2-dilinoleyl-4-(2-dimethylaminoethyl)-[1,3]-dioxolane, reference compound]
ApoB knockdown relative to PBS control (%) (IV 0.033 mg/kg): −51% | ApoB knockdown relative to PBS control (%) (IV 0.05 mg/kg): −66%

CC(C)CCCC(C)CCCC(C)CCCC(C)CCC(CCC(C)CCCC(C)CCCC(C)CCCC(C)C)OC(=O)CCCCN(C)C (centres unmarked) [Compound 18, Phytanyl-MC4]
ApoB knockdown relative to PBS control (%) (IV 0.05 mg/kg): −46%

CC/C=C\C/C=C\C/C=C\CCCCCCCCC(CCCCCCCC/C=C\C/C=C\C/C=C\CC)OCCCN(C)C [Compound 34, 3-((3Z,6Z,9Z,28Z,31Z,34Z)-heptatriaconta-3,6,9,28,31,34-hexaen-19-yloxy)-N,N-dimethylpropan-1-amine]
ApoB knockdown relative to PBS control (%) (IV 0.033 mg/kg): −41%

CCC1CC1CC1CC1CC1CC1CCCCCCCCC(CCCCCCCCC1CC1CC1CC1CC1CC1CC)OC(=O)CCCN(C)C (centres unmarked) [Compound 5]
ApoB knockdown relative to PBS control (%) (IV 0.033 mg/kg): −56%

CCCCC/C=C\C/C=C\CCCCCCCCC(CCCCCCCC/C=C\C/C=C\CCCCC)OC(=O)CCCN(C)C [Compound 1, (6Z,9Z,28Z,31Z)-heptatriaconta-6,9,28,31-tetraen-19-yl 4-(dimethylamino)butanoate]
ApoB knockdown relative to PBS control (%) (IV 0.033 mg/kg): −71% | ApoB knockdown relative to PBS control (%) (IV 0.05 mg/kg): −81% | ApoB silencing activity compared to a SNALP formulation containing the C2K benchmark cationic lipid: unexpectedly improved ApoB silencing activity

CCCCCC1CC1CC1CC1CC1CC1CCCCCC(CCCCCC1CC1CC1CC1CC1CC1CCCCC)OC(=O)CCCN(C)C (centres unmarked) [Compound 9, CP-γ-LenMC3]
ApoB knockdown relative to PBS control (%) (IV 0.033 mg/kg): −54%

CCCCC/C=C\C/C=C\CCCCCCCCC(CCCCCCCC/C=C\C/C=C\CCCCC)OC(=O)N(C)CCN(C)C [Compound 11, MC2MC]
ApoB knockdown relative to PBS control (%) (IV 0.05 mg/kg): −54%

CCCCC/C=C\C/C=C\CCCCCCCCC(CCCCCCCC/C=C\C/C=C\CCCCC)OC(=O)N(C)CCCN(CC)CC [Compound 31, (6Z,9Z,28Z,31Z)-heptatriaconta-6,9,28,31-tetraen-19-yl (3-(diethylamino)propyl)(methyl)carbamate]
ApoB knockdown relative to PBS control (%) (IV 0.05 mg/kg): −62%

CCC/C=C\C/C=C\CCCCCCCCC(CCCCCCCC/C=C\C/C=C\CCCCC)OC(=O)N(C)CCCN(C)C (centres unmarked) [Compound 10, MC3MC]
ApoB knockdown relative to PBS control (%) (IV 0.033 mg/kg): −50%

CCCCC/C=C\C/C=C\C/C=C\CCCCCC(CCCCC/C=C\C/C=C\C/C=C\CCCCC)OC(=O)CCCN(C)C [Compound 8, γ-LenMC3]
ApoB knockdown relative to PBS control (%) (IV 0.033 mg/kg): −71% | ApoB silencing activity compared to a SNALP formulation containing the C2K benchmark cationic lipid: unexpectedly improved ApoB silencing activity

CCCCC/C=C\C/C=C\CCCCCCCCCC(CCCCCCC/C=C\C/C=C\CCCCC)OC(=O)N(CCCCCC)CCCN(C)C (centres unmarked) [Compound 27, (6Z,9Z,28Z,31Z)-heptatriaconta-6,9,28,31-tetraen-18-yl 3-(dimethylamino)propyl(hexyl)carbamate]
ApoB knockdown relative to PBS control (%) (IV 0.033 mg/kg): −66% | ApoB silencing activity compared to a SNALP formulation containing the C2K benchmark cationic lipid: unexpectedly improved ApoB silencing activity

CC(C)CCCC(C)CCCC(C)CCCC(C)CCC(CCC(C)CCCC(C)CCCC(C)CCCC(C)C)OC(=O)CCCN(C)C (centres unmarked) [Compound 17, Phytanyl-MC3]
ApoB knockdown relative to PBS control (%) (IV 0.05 mg/kg): −14%

CC/C=C\CCCN(CCCN(C)C)C(=O)OC(CCCCCCC/C=C\C/C=C\CCCCC)CCCCCCCCC/C=C\C/C=C\CCCCC (centres unmarked) [Compound 28, (6Z,9Z,28Z,31Z)-heptatriaconta-6,9,28,31-tetraen-18-yl 3-(dimethylamino)propyl((Z)-hept-4-enyl)carbamate]
ApoB knockdown relative to PBS control (%) (IV 0.033 mg/kg): −68% | ApoB silencing activity compared to a SNALP formulation containing the C2K benchmark cationic lipid: unexpectedly improved ApoB silencing activity

CCCCC/C=C\C/C=C\CCCCCCCCCC(CCCCCCC/C=C\C/C=C\CCCCC)OC(=O)N(CC)CCN(C)C (centres unmarked) [Compound 29, (6Z,9Z,28Z,31Z)-heptatriaconta-6,9,28,31-tetraen-18-yl 2-(dimethylamino)ethyl(ethyl)carbamate]
ApoB knockdown relative to PBS control (%) (IV 0.05 mg/kg): −59%

CCCCC/C=C\C/C=C\CCCCCCCCC(CCCCCCCC/C=C\C/C=C\CCCCC)OCCCCN(C)C [Compound 15, MC4 Ether]
ApoB knockdown relative to PBS control (%) (IV 0.05 mg/kg): −77% | ApoB silencing activity compared to a SNALP formulation containing the C2K benchmark cationic lipid: unexpectedly improved ApoB silencing activity

CCCCC/C=C\C/C=C\CCCCCCCCC(CCCCCCCC/C=C\C/C=C\CCCCC)SC(=O)CCCN(C)C [Compound 20, S-(6Z,9Z,28Z,31Z)-heptatriaconta-6,9,28,31-tetraen-19-yl 4 (dimethylamino) butanethioate]
ApoB knockdown relative to PBS control (%) (IV 0.05 mg/kg): −50%

CCCCC/C=C\C/C=C\CCCCCCCCC(CCCCCCCC/C=C\C/C=C\CCCCC)OCCCN(C)C [Compound 13, 3-((6Z,9Z,28Z,31Z)-heptatriaconta-6,9,28,31-tetraen-19-yloxy)-N,N-dimethylpropan-1-amine]
ApoB knockdown relative to PBS control (%) (IV 0.033 mg/kg): −69% | ApoB silencing activity compared to a SNALP formulation containing the C2K benchmark cationic lipid: unexpectedly improved ApoB silencing activity

CCCCC/C=C/C/C=C/CCCCCCCCC(CCCCCCCC/C=C/C/C=C/CCCCC)OC(=O)CCCN(C)C [Compound 40, (6E,9E,28E,31E)-heptatriaconta-6,9,28,31-tetraen-19-yl 4-(dimethylamino)butanoate]
ApoB knockdown relative to PBS control (%) (IV 0.05 mg/kg): −58%

CCCCC/C=C\C/C=C\CCCCCCCC(=O)C(CCCCCCC/C=C\C/C=C\CCCCC)OC(=O)CCCN(C)C (centres unmarked) [Compound 23, (6Z,9Z,27Z,30Z)-19-oxohexatriaconta-6,9,27,30-tetraen-18-yl 4-(dimethylamino)butanoate]
ApoB knockdown relative to PBS control (%) (IV 0.033 mg/kg): −33%

CCCCCC/C=C/C=C\CCCCCCCCC(CCCCCCCC/C=C\C=C\CCCCCC)OCCCN(C)C [Compound 41, 3-((7E,9Z,28Z,30E)-heptatriaconta-7,9,28,30-tetraen-19-yloxy)-N,N-dimethylpropan-1-amine]
ApoB knockdown relative to PBS control (%) (IV 0.033 mg/kg): −52%

CCCCC/C=C\C/C=C\CCCCCCCCC(CCCCCCCC/C=C/C/C=C/CCCCC)OC(=O)CCCN(C)C (centres unmarked) [Compound 25, (6Z,9Z,28E,31E)-heptatriaconta-6,9,28,31-tetraen-19-yl 4-(dimethylamino)butanoate]
ApoB knockdown relative to PBS control (%) (IV 0.05 mg/kg): −66%

CC/C=C\C/C=C\C/C=C\CCCCCCCCC(CCCCCCCC/C=C\C/C=C\C/C=C\CC)OCCCCN(C)C [Compound 35, 4-((3Z,6Z,9Z,28Z,31Z,34Z)-heptatriaconta-3,6,9,28,31,34-hexaen-19-yloxy)-N,N-dimethylbutan-1-amine]
ApoB knockdown relative to PBS control (%) (IV 0.033 mg/kg): −78% | ApoB silencing activity compared to a SNALP formulation containing the C2K benchmark cationic lipid: unexpectedly improved ApoB silencing activity

CCCCC/C=C\C/C=C\CCCCCCCC(O)C(CCCCCCC/C=C\C/C=C\CCCCC)OC(=O)CCN(C)C (centres unmarked) [Compound 22, (6Z,9Z,27Z,30Z)-19-hydroxyhexatriaconta-6,9,27,30-tetraen-18-yl 3-(dimethylamino)propanoate]
ApoB knockdown relative to PBS control (%) (IV 0.033 mg/kg): −30%

Reference: patent US20170151333A1, “NOVEL CATIONIC LIPIDS AND METHODS OF USE THEREOF” (PROTIVA BIOTHERAPEUTICS, INC., priority 2010, published 2017)
